Data taken from US20180193361A1, “GUT ANTI-INFLAMMATORY AGENTS FOR REGULATION OF HIGH BLOOD GLUCOSE LEVELS” (UNIVERSITY HEALTH NETWORK, priority 2015, published 2018).

How the values were obtained:
[1] = tested on: bowel and VAT immune cell populations; assay: Immune cell populations in NCD vs NCD 5-ASA mice; assay type: in vivo; details: bowels or VATs, NCD 5-ASA vs untreated NCD mice
Excerpt: Isolation of bowel immune cells. For isolation of small intestine lamina propria immune cells, we used the protocol described by Fritz et al (Fritz et al., 2012), and processed approximately 10 cm from the distal end of the small intestine (jejunum and ileum). For the isolation of colonic lamina propria immune cells, we used the protocol described by Geddes et al (Geddes et al., 2011). Following lamina propria isolations, we passed immune cells through 70 μm strainers, and used them for flow cytometry.
(§1) We isolated VAT-associated immune cells as previously described (Winer et al., 2009a).
(§2) We stained single cell suspensions for 30 min on ice with commercial antibodies. Flow cytometry antibodies including CD45.2 (104), CD3 (145-2C11), CD4 (GK1.5), CD8 (53-6.7), CD25 (PC61), γδTcR (GL3), Foxp3 (150D), IL-17 (TC11-18H10.1), IFNγ XMG1.2), α4β7 (DATK32), CCR9 (CW-1.2), CD11b (M1/70), F4/80 (BM8), CD11c (N418), CD206 (C068C2), Gr-1 (RB6-8C5), IL-7Rα (A7R34), B220 (RA3-6B2), Thy1.2 (30-H12), NKp46 (29A1.4), and Sca-1 (D7) were purchased from Biolegend. Intracellular staining was performed using a Foxp3 staining buffer kit (eBioscience). We acquired data on a Fortessa flow cytometer (BD Biosciences) and analyzed it with FlowJo software (Tree Star). We gated ILCs as described (Kirchberger et al., 2013).

[2] = tested on: HFD-fed C57BL/6 mice; assay: Food intake and metabolic cage studies, HFD or HFD 5-ASA; assay type: in vivo; details: HFD vs HFD 5-ASA, 14 weeks
Protocol: Mice. Mice were fed either NCD (15 kcal % fat) or HFD (Research Diets, 60 kcal % fat, irradiated) starting at 6 weeks of age. All studies were performed under the approval of Animal User Protocols by the Animal Care Committee at the University Health Network. Mice were maintained in a pathogen-free, temperature-controlled environment on a 12-hour light and dark cycle. All mice used in comparative studies were male, age-matched, and litter mates where possible. […] We confirmed T cell-specific floxing of the PPARγ gene in Lck-Cre+ PPARγfl/fl mice by qPCR with a minimum of at least 90% reduction in PPARγ expression. […] We placed mice in automated metabolic cages (Oxymax Systems, Columbus Instruments) for 48 hours with airflow held constant at 0.5 L/min. (Revelo et al., 2014). […] We measured metabolic activity using indirect calorimetry, recording maximal O2 consumption (VO2), CO2 production (VCO2), and heat production normalized to body weight. Respiratory exchange ratio (RER) was calculated as […]. The data shown are calculated for light and dark measurements as an average over 24 hours by combining light and dark measurements. Ambulatory activity was measured by the breaking of infrared laser beams in the XY plane.

[3] = tested on: spleen and blood immune cells, serum cytokines; assay: Systemic immune function during HFD feeding (spleen, blood, serum cytokines); assay type: in vivo, mice; details: HFD vs HFD 5-ASA
Protocol: as §2
We measured serum cytokines by Luminex Multiplex cytokine assay (Millipore, run by the UHN Microarray Center), and quantified IL-10 and IFN-γ in supernatants of anti-CD3/CD28-stimulated splenocytes or bowel immune cells (Winer et al., 2009b) by ELISA (Biolegend).

[4] = tested on: small bowel T cells; assay: In vitro IFNγ secretion, anti-CD3/CD28-activated small bowel T cells; assay type: cell-based; details: T cells from HFD-fed WT mice, 72 hour; 5-ASA 0.1 mM; rosiglitazone 0.1, 1 and 10 μM
Protocol: To measure the effect of IFNγ on tight-junction gene expression, we treated MODE-K cells with recombinant mouse IFNγ (Biolegend). We purified bulk dendritic cells and T cells from murine small bowels and spleens using a negative selection DC or T cell isolation kit (Stem Cell Technologies). We plated T cells at 5×10^5 cells/well with plate-bound anti-CD3/CD28 (1 μg/ml, Biolegend). […] We collected supernatants for cytokine measurements after 72 hour incubation. […] After 24 hours, we washed the cells with PBS and co-cultured them (1×10^4 cells/well) with OVA323-339 peptide and OT-II splenic or small bowel T cells (5×10^4 cells/well) for 48 hours. Supernatants were collected at 48 hours for cytokine measurement. We measured serum cytokines by Luminex Multiplex cytokine assay (Millipore, run by the UHN Microarray Center), and quantified IL-10 and IFN-γ in supernatants of anti-CD3/CD28-stimulated splenocytes or bowel immune cells (Winer et al., 2009b) by ELISA (Biolegend).

[5] = tested on: VAT T cells and M1 macrophages; assay: Flow cytometry of VAT immune cells, HFD or HFD 5-ASA; assay type: in vivo, mice; details: HFD vs HFD 5-ASA 1500 mg/kg/day, 16 weeks
Protocol: as §1, §2

SMILES: Nc1ccc(O)c(C(=O)O)c1 [5-ASA, 5-aminosalicylic acid]
- significant anti-inflammatory effects on immune cell populations [1]: not seen
- carbon dioxide output [2]: no difference
- food intake [2]: no difference
- oxygen consumption [2]: no difference
- circulating immune cell polarity in the blood ([3]; 14 weeks): no effects
- immune cell populations in the spleen ([3]; 14 weeks): no effects
- serum levels of cytokines ([3]; Luminex, 23 cytokines, 14 weeks): mostly unchanged
- serum RANTES ([3]; Luminex, 14 weeks): significant but small increase
- serum TNFα ([3]; Luminex, 14 weeks): reduction
- stimulated spleen immune cell cytokine secretion ([3]; cultured splenocytes, anti-CD3/CD28 48 hrs): no effects
- IFNγ production [4]: significantly reduced
- Tregs in VAT [5]: increasing
- percentages of IFNγ-secreting CD8+ T cells in VAT [5]: reducing
- percentages of M1 inflammatory macrophages in VAT [5]: reducing
- percentages of Th1 cells in VAT [5]: reducing
